PubChem BioAssay AID489006 (Sanford-Burnham Center for Chemical Genomics, 2010)
Calls of active or inactive are those of the source. No rule for the calls is given here.

Tested on: Jurkat NF-kB reporter, luminescence
Assay: Jurkat NF-kB signaling inhibitors – cell-based, luminescence, selectivity assay for B-cell receptor NF-kB inhibitor project, dose response (AID 489006)

SMILES	IC50
Cc1cc(C)cc(NC(=O)Nc2ccc(NC(=O)c3ccccc3O)cc2)c1	> 80 µM (inactive)
CC(C)(C)c1ccc(-c2noc(CCC(N)=O)n2)cc1	< 0.16 µM
Cn1c(=O)n(C)c2cc(/C=C3/NC(=O)N(Cc4ccccc4)C3=O)ccc21	> 80 µM (inactive)
CCNC(=O)CCc1nc(-c2ccc(C(C)(C)C)cc2)no1	> 80 µM (inactive)
CCC(=O)N(C1=C(NC)C(=O)c2ccccc2C1=O)C(C)C	45.8 µM (inactive)
C=CCn1c(O)c(C(C)=NC(C)c2ccccc2)c(=O)[nH]c1=O (stereo unspecified)	> 80 µM (inactive)
Cc1ccc(C(=O)C[n+]2cc(-c3ccc(C)cc3)n3c2CCCCC3)cc1	8.37 µM
COc1ccc(OC)c(NC(=O)c2[nH]c(C)c(C(C)=O)c2C)c1	> 80 µM (inactive)
COc1cc(-c2[nH]nc3c2C(c2ccco2)C(C#N)=C(N)O3)cc(OC)c1OC (stereo unspecified)	61 µM (inactive)
CCn1c(=S)[nH]c2cc(S(=O)(=O)N3CCCCC3)ccc21	> 80 µM (inactive)
CCN(CC)c1ccc(/C=N/N=C(c2ccccc2)c2ccccc2)c(O)c1	> 80 µM (inactive)
C(=N\Nc1nc(Nc2ccccc2)nc(Nc2ccccc2)n1)/c1cccnc1	> 80 µM (inactive)
C/C(=N\Nc1nc(Nc2ccccc2)nc(N2CCOCC2)n1)c1cccs1	> 80 µM (inactive)
O=[N+]([O-])c1ccc(Sc2cc[n+]([O-])c3ccccc23)c([N+](=O)[O-])c1	6.03 µM
Oc1[nH]c2ccccc2c1N=Nc1nc(Nc2ccccc2)nc(N2CCOCC2)n1	9.4 µM
N=c1ccn2c(n1)OC1C(O)C(CO)OC12 (stereo unspecified)	2.21 µM
Cc1cc(OC(=O)c2ccccc2Cl)cc(=O)n1C	> 80 µM (inactive)
CCc1ccc(-c2nc(CSCC(=O)NC3CC3)c(C)o2)cc1	38.5 µM (inactive)
C=C(C)[C@@H]1CCC2(C(=O)O)CC[C@]3(C)[C@H](CC[C@@H]4[C@@]5(C)CCC(=O)C(C)(C)[C@@H]5CC[C@]43C)[C@@H]12 (stereo partly specified)	> 80 µM (inactive)
CCCC(=O)Nc1ccc(Sc2ccc([N+](=O)[O-])cc2)cc1	15.9 µM
Cc1ccc(-c2nc(C(=O)NCC3CCCO3)cc3c2[nH]c2ccccc23)cc1 (stereo unspecified)	23.4 µM (inactive)
CSC1CCCCC1(O)CSc1nc2c(cc1C#N)CCCC2 (stereo unspecified)	> 80 µM (inactive)
Cc1ccccc1Nc1nc(Cl)c(C=O)s1	> 80 µM (inactive)
Cc1cc(C)nc(Sc2ccc([N+](=O)[O-])cc2[N+](=O)[O-])n1	11.7 µM

SMILES	IC50
COC(=O)c1cc(NC(=O)Nc2cc(OC)ccc2OC)cc(C(=O)OC)c1	63.8 µM (inactive)
Cn1c(=O)cc(SCC(=O)N2CCCC2)c2cc(Cl)ccc21	> 80 µM (inactive)
CCOc1ccc(-c2noc(CCC(=O)O)n2)cc1	0.7 µM
Cc1ccc(NC(=O)O/N=C/c2c(C)nn(C(C)(C)C)c2C)cc1Cl	< 0.16 µM
CCCNC(=O)c1ccc(N2CCC3(CC2)CC(c2cccc(Br)c2)=NO3)c(NC(=O)c2ccc(Cl)c([N+](=O)[O-])c2)c1	> 80 µM (inactive)
CCOC(=O)C(=CNc1cc(C)ccc1C)C(=O)OCC	> 80 µM (inactive)
Cc1ccc(/C=C2\SC(=S)N(CCCC(=O)Nc3cc(C)on3)C2=O)cc1	17.7 µM
CCOC(=O)Cc1csc(NC(=S)NC(=O)c2ccc(Cl)cc2)n1	3.85 µM
COc1cc(NC(=O)c2cc3c(C)nc4ccccc4c3o2)cc(OC)c1OC	> 80 µM (inactive)
COc1cccc(/C=C2\SC(=S)N(CCCC(=O)NC3=NCCS3)C2=O)c1	25.9 µM (inactive)
Cn1c(=O)cc(OCCCC(=O)NCc2ccccn2)c2ccccc21	> 80 µM (inactive)
COc1ccccc1/C=C1\SC(=S)N(CCC(=O)Nc2cc(C)on2)C1=O	54.7 µM (inactive)
Cc1ccc(/C=C2\SC(=S)N(CCCC(=O)NC3CCCC3)C2=O)cc1	0.73 µM
COc1ccc(C(=O)N/N=C/c2sc(N3CCOCC3)nc2-c2ccccc2)cc1OC	35.5 µM (inactive)
O=C(CCCN1C(=O)/C(=C/c2ccccc2Cl)SC1=S)NNC(=O)c1ccc(Cl)cc1	2.04 µM
Cc1cc(OCC(=O)N2CCC(C(N)=O)CC2)c2c3c(c(=O)oc2c1)CCCC3	> 80 µM (inactive)
O=C(O)CCSc1nc2ccccc2s1	6.75 µM
CCSc1ncc(Cl)c(C(=O)Nc2sc3c(c2C(=O)NCc2cccnc2)CCCC3)n1	> 80 µM (inactive)
Cc1[nH]c2ccccc2c1/C=N/Nc1nc(Nc2ccc(F)cc2)nc(N2CCOCC2)n1	20.9 µM (inactive)
COc1cccc(N2CCN(c3ncnc4c3[nH]c3ccc(F)cc34)CC2C)c1 (stereo unspecified)	1.31 µM
CC(C)Oc1ccc(C(=O)Nc2ccc(N(C)C)cc2)cc1	> 80 µM (inactive)
CCc1ccc(-c2nnn(CCC(=O)OC)n2)cc1	1.78 µM
COc1ccc(/C=C2\SC(=S)N(CCC(=O)Nc3ccc(C(=O)O)cc3)C2=O)cc1	> 80 µM (inactive)
COc1cccc(/C=C2/SC(=S)N(CCCC(=O)Nc3ccc(O)cc3)C2=O)c1	29.5 µM (inactive)

SMILES	IC50
CCN(CC)CCOC(=O)c1ccc(NC(=O)CCCN2C(=O)S/C(=C/c3ccc(OC)cc3)C2=S)cc1	1.48 µM
Cc1ccc(S(=O)(=O)N2CCCCC2CCNC(=O)C(=O)NCc2ccncc2)cc1 (stereo unspecified)	> 80 µM (inactive)
COc1ccc(NC(=O)CN(C)C(=O)C2(c3ccccc3)CCCC2)cc1	> 80 µM (inactive)
CCOC(=O)CNC(=O)CSc1nnc(NC(=O)c2ccc(C)cc2)s1	5.88 µM
CNC(=O)CCc1nc(-c2ccc(C(C)(C)C)cc2)no1	> 80 µM (inactive)
Cc1cc2ccccn2c1C(=O)c1ccc(NN)c([N+](=O)[O-])c1	> 80 µM (inactive)
COC(=O)C(C)Oc1cc(C)cc2oc(=O)c3c(c12)CCC3 (stereo unspecified)	49.9 µM (inactive)
O=C(CCl)Nc1ccccc1Sc1ccccc1	14.1 µM
CC(C)(O)/C=C/C(=O)[C@](C)(O)C1[C@H](O)C[C@@]2(C)C3CC=C4C(C[C@H](O)[C@@H](O)C4(C)C)[C@]3(C)C(=O)C[C@]12C (stereo partly specified)	31.3 µM (inactive)
O=c1c(C=NCCCO)c(-c2ccccc2)[nH]n1-c1nc2ccccc2s1	3.46 µM
CCOC(=O)c1cc2c(=O)n3ccccc3nc2n(CC(C)C)c1=NC(=O)c1c(-c2c(F)cccc2Cl)noc1C	> 80 µM (inactive)
COc1ccc(/C=C2/SC(=S)N(CCCC(=O)Nc3cccc(O)c3)C2=O)cc1	> 80 µM (inactive)
Cc1ccc(C)c(OCc2ccc(C(=O)NN)o2)c1	> 80 µM (inactive)
CNC(=O)c1cccn(Cc2ccc(C(F)(F)F)cc2)c1=O	20.9 µM (inactive)
Cc1nc2ccccn2c1C(=O)/C=C/c1cccc([N+](=O)[O-])c1	4.57 µM
CCOc1ccc(-c2nc(CSCC(=O)NC3CC3)c(C)o2)cc1	> 80 µM (inactive)
O=C1CCCc2c1[nH]c1ccc(CN3CCCCC3)cc21	> 80 µM (inactive)
Cc1ccc(NC(=O)C2CCC(CNc3c(N4CCC(C)CC4)c(=O)c3=O)CC2)cc1F (stereo unspecified)	> 80 µM (inactive)
CCn1c(=O)c2cc(C(=O)NCc3cccs3)sc2c2ccccc21	> 80 µM (inactive)
O=C(Oc1cccc(/C=N/Nc2nc(N3CCOCC3)nc(N3CCOCC3)n2)c1)c1ccco1	> 80 µM (inactive)
Cn1c(=O)cc(OCC(=O)N2CCC3(CC2)OCCO3)c2ccccc21	> 80 µM (inactive)
CCCNC(=O)CSCc1nc(-c2ccc(SC)cc2)oc1C	> 80 µM (inactive)
O=C(CCCN1C(=O)/C(=C/c2ccccc2Cl)SC1=S)NNC(=O)c1ccncc1	7.79 µM
